{
  "source": "ChEMBL document CHEMBL3885861",
  "about": "“Open TG-GATES”",
  "organism": "Rattus norvegicus",
  "experiment": "Open TG-GATES - Regimen: Daily Repeat",
  "type": "toxicity, organism-based, Sprague-Dawley",
  "parameters": "regimen Daily Repeat, gender Male, age 6 weeks",
  "conditions": "in vivo, po, 8 mg/kg, route gavage, dose level Low; for APTT / Bas / Eos / Fbg / Hb / Ht / Lym / MCH / MCHC / MCV / Mono / Neu / PT / Plat / RBC / Ret / WBC: tissue Blood",
  "key": {"[1]": {"conditions": "72 h, tissue Kidney, time 3 day"}, "[2]": {"conditions": "72 h, tissue Plasma, time 3 day"}},
  "data": [
    {"compound": "NC1=NC(=O)C(c2ccccc2)O1", "note": "(stereo unspecified) [PEMOLINE]", "values": [
      {"measurement": "TERMINAL_BW", "setting": "72 h, time 3 day", "result": 232.2, "unit": "g"},
      {"measurement": "APTT", "setting": "72 h, time 3 day", "result": 17.3, "unit": "s"},
      {"measurement": "Bas", "setting": "72 h, time 3 day", "result": 0, "unit": "%"},
      {"measurement": "Eos", "setting": "72 h, time 3 day", "result": 1.2, "unit": "%"},
      {"measurement": "Fbg", "setting": "72 h, time 3 day", "result": 275, "unit": "mg/dL"},
      {"measurement": "Hb", "setting": "72 h, time 3 day", "result": 13.5, "unit": "g/dL"},
      {"measurement": "Ht", "setting": "72 h, time 3 day", "result": 39.8, "unit": "%"},
      {"measurement": "Lym", "setting": "72 h, time 3 day", "result": 77, "unit": "%"},
      {"measurement": "MCH", "setting": "72 h, time 3 day", "result": 21.5, "unit": "pg"},
      {"measurement": "MCHC", "setting": "72 h, time 3 day", "result": 33.8, "unit": "%"},
      {"measurement": "MCV", "setting": "72 h, time 3 day", "result": 63.5, "unit": "fL"},
      {"measurement": "Mono", "setting": "72 h, time 3 day", "result": 3.6, "unit": "%"},
      {"measurement": "Neu", "setting": "72 h, time 3 day", "result": 18.2, "unit": "%"},
      {"measurement": "PT", "setting": "72 h, time 3 day", "result": 12.8, "unit": "s"},
      {"measurement": "Plat", "setting": "72 h, time 3 day", "result": 112.1, "unit": "x10_4/uL"},
      {"measurement": "RBC", "setting": "72 h, time 3 day", "result": 627.2, "unit": "x10_4/ul"},
      {"measurement": "Ret", "setting": "72 h, time 3 day", "result": 7.3, "unit": "%"},
      {"measurement": "WBC", "setting": "72 h, time 3 day", "result": 82.8, "unit": "x10_2/uL"},
      {"measurement": "KIDNEY_L", "setting": "[1]", "result": 1, "unit": "g"},
      {"measurement": "KIDNEY_R", "setting": "[1]", "result": 1, "unit": "g"},
      {"measurement": "KIDNEY_TOTAL", "setting": "[1]", "result": 1.9, "unit": "g"},
      {"measurement": "LIVER", "setting": "72 h, tissue Liver, time 3 day", "result": 11.1, "unit": "g"},
      {"measurement": "A/G", "setting": "[2]", "result": 0.9},
      {"measurement": "ALP", "setting": "[2]", "result": 1587, "unit": "IU/L"},
      {"measurement": "ALT", "setting": "[2]", "result": 45.6, "unit": "IU/L"},
      {"measurement": "AST", "setting": "[2]", "result": 70.6, "unit": "IU/L"},
      {"measurement": "BUN", "setting": "[2]", "result": 15, "unit": "mg/dL"},
      {"measurement": "CRE", "setting": "[2]", "result": 0.2, "unit": "mg/dL"},
      {"measurement": "Ca", "setting": "[2]", "result": 10.8, "unit": "mg/dL"},
      {"measurement": "Cl", "setting": "[2]", "result": 105.6, "unit": "meq/L"},
      {"measurement": "DBIL", "setting": "[2]", "result": 0.018, "unit": "mg/dL"},
      {"measurement": "GLC", "setting": "[2]", "result": 182, "unit": "mg/dL"},
      {"measurement": "IP", "setting": "[2]", "result": 8.2, "unit": "mg/dL"},
      {"measurement": "K", "setting": "[2]", "result": 3.7, "unit": "meq/L"},
      {"measurement": "LDH", "setting": "[2]", "result": 58.8, "unit": "IU/L"},
      {"measurement": "Na", "setting": "[2]", "result": 143.6, "unit": "meq/L"},
      {"measurement": "PL", "setting": "[2]", "result": 155.8, "unit": "mg/dL"},
      {"measurement": "RALB", "setting": "[2]", "result": 2.7, "unit": "g/dL"},
      {"measurement": "TBIL", "setting": "[2]", "result": 0.03, "unit": "mg/dL"},
      {"measurement": "TC", "setting": "[2]", "result": 93, "unit": "mg/dL"},
      {"measurement": "TG", "setting": "[2]", "result": 84.4, "unit": "mg/dL"},
      {"measurement": "TP", "setting": "[2]", "result": 5.6, "unit": "g/dL"},
      {"measurement": "gamma-GTP", "setting": "[2]", "result": 1, "unit": "IU/L"},
      {"measurement": "TERMINAL_BW", "setting": "[…], time 7 day", "result": 267.2, "unit": "g"},
      {"measurement": "TERMINAL_BW", "setting": "[…], time 14 day", "result": 337.4, "unit": "g"},
      {"measurement": "TERMINAL_BW", "setting": "[…], time 28 day", "result": 432.5, "unit": "g"},
      {"measurement": "APTT", "setting": "[…], time 7 day", "result": 17.3, "unit": "s"},
      {"measurement": "Bas", "setting": "[…], time 7 day", "result": 0.2, "unit": "%"},
      {"measurement": "Eos", "setting": "[…], time 7 day", "result": 1, "unit": "%"},
      {"measurement": "Fbg", "setting": "[…], time 7 day", "result": 286.6, "unit": "mg/dL"},
      {"measurement": "Hb", "setting": "[…], time 7 day", "result": 13.8, "unit": "g/dL"},
      {"measurement": "Ht", "setting": "[…], time 7 day", "result": 40.5, "unit": "%"},
      {"measurement": "Lym", "setting": "[…], time 7 day", "result": 79.4, "unit": "%"},
      {"measurement": "MCH", "setting": "[…], time 7 day", "result": 21.6, "unit": "pg"},
      {"measurement": "MCHC", "setting": "[…], time 7 day", "result": 34.1, "unit": "%"},
      {"measurement": "MCV", "setting": "[…], time 7 day", "result": 63.2, "unit": "fL"},
      {"measurement": "Mono", "setting": "[…], time 7 day", "result": 3, "unit": "%"},
      {"measurement": "Neu", "setting": "[…], time 7 day", "result": 16, "unit": "%"},
      {"measurement": "PT", "setting": "[…], time 7 day", "result": 12.8, "unit": "s"},
      {"measurement": "Plat", "setting": "[…], time 7 day", "result": 119.7, "unit": "x10_4/uL"},
      {"measurement": "RBC", "setting": "[…], time 7 day", "result": 641.4, "unit": "x10_4/ul"},
      {"measurement": "Ret", "setting": "[…], time 7 day", "result": 5.9, "unit": "%"},
      {"measurement": "WBC", "setting": "[…], time 7 day", "result": 119.6, "unit": "x10_2/uL"},
      {"measurement": "APTT", "setting": "[…], time 14 day", "result": 17.3, "unit": "s"},
      {"measurement": "Bas", "setting": "[…], time 14 day", "result": 0, "unit": "%"},
      {"measurement": "Eos", "setting": "[…], time 14 day", "result": 1, "unit": "%"},
      {"measurement": "Fbg", "setting": "[…], time 14 day", "result": 297, "unit": "mg/dL"},
      {"measurement": "Hb", "setting": "[…], time 14 day", "result": 14.2, "unit": "g/dL"},
      {"measurement": "Ht", "setting": "[…], time 14 day", "result": 40.8, "unit": "%"},
      {"measurement": "Lym", "setting": "[…], time 14 day", "result": 74.8, "unit": "%"},
      {"measurement": "MCH", "setting": "[…], time 14 day", "result": 21.4, "unit": "pg"},
      {"measurement": "MCHC", "setting": "[…], time 14 day", "result": 34.8, "unit": "%"},
      {"measurement": "MCV", "setting": "[…], time 14 day", "result": 61.3, "unit": "fL"},
      {"measurement": "Mono", "setting": "[…], time 14 day", "result": 2.4, "unit": "%"},
      {"measurement": "Neu", "setting": "[…], time 14 day", "result": 21.4, "unit": "%"},
      {"measurement": "PT", "setting": "[…], time 14 day", "result": 12.7, "unit": "s"},
      {"measurement": "Plat", "setting": "[…], time 14 day", "result": 109.6, "unit": "x10_4/uL"},
      {"measurement": "RBC", "setting": "[…], time 14 day", "result": 665.6, "unit": "x10_4/ul"},
      {"measurement": "Ret", "setting": "[…], time 14 day", "result": 4.6, "unit": "%"},
      {"measurement": "WBC", "setting": "[…], time 14 day", "result": 83, "unit": "x10_2/uL"},
      {"measurement": "APTT", "setting": "[…], time 28 day", "result": 17.5, "unit": "s"},
      {"measurement": "Bas", "setting": "[…], time 28 day", "result": 0, "unit": "%"},
      {"measurement": "Eos", "setting": "[…], time 28 day", "result": 1, "unit": "%"},
      {"measurement": "Fbg", "setting": "[…], time 28 day", "result": 251.8, "unit": "mg/dL"},
      {"measurement": "Hb", "setting": "[…], time 28 day", "result": 15.2, "unit": "g/dL"},
      {"measurement": "Ht", "setting": "[…], time 28 day", "result": 42, "unit": "%"}
    ]}
  ]
}
